Measurements published in patent publication US10330670B2, “Therapeutic or prophylactic agent for retinopathy of prematurity, testing method for retinopathy of prematurity, and screening method for therapeutic or prophylactic substance for retinopathy of prematurity” (TOKYO UNIVERSITY OF AGRICULTURE AND TECHNOLOGY, priority 2012, dated 2019).
Entries after “also recorded” stand apart in the source; their conditions may differ.

Key:
[1] = system: human mast cell strain HMC-1; experiment: Degranulation of mast cells induced by variation of oxygen concentration, β-hexosaminidase release; type: cell-based; conditions: 75% O2 24 hours then 20% O2 12 hours, p<0.05
Description: It has been known that human mast cell strain HMC-1 is a cell strain derived from leukemia, that it has a characteristic as a mast cell, and that it includes β-hexosaminidase in its granules. With reference to a previous report (European Journal of Immunology, Vol. 29, 2645-2649 (1999)), HMC-1 cells were suspended in an α-MEM culture medium to which 10% (v/v) fetal calf serum and a usual dose of antibiotic had been added for preparation of a mast cell suspension with a cell concentration of 5×10^5 cells/ml. Throughout the test period including the period in the high oxygen concentration environment, all the cells were subjected to an environment of 5% (v/v) CO2, 37° C. as the cultivation condition other than the oxygen concentration.
The mast cell suspension was dispensed on a 96-well plate at 4×10^5 cells/well. Cromolyn and each of the seven candidate substances were added to obtain the following concentrations. As controls (media) to which the agent was not added and as non-treated examples to which the marker substance release induction process was not carried out, wells to which neither cromolyn nor the candidate substances was added were set.
The marker substance (β-hexosaminidase) release induction process and the step for contact with the mast cells HMC-1 that had been subjected to the marker substance release induction process were performed by retaining the 96-well plate in the high oxygen concentration environment (75 v/v % oxygen) for 24 hours and in the normal oxygen environment (20 v/v % oxygen) for 12 hours. For the non-treated example, the 96-well plate was retained in the normal oxygen environment (20 v/v % oxygen) for 24 hours and further retained in the normal oxygen environment for 12 hours.
The detection and measurement of the marker substance (β-hexosaminidase) that had been released by degranulation of the mast cells in the contacting step were carried out by a previously reported method (Eur. J. Immunol. 19 (1989) 2251-2256). To put it briefly, the step was carried out in the following manner. After having collecting the supernatant from the respective wells after the contacting step, the pellets (cells) were dissolved in a 0.5% triton X-100-containing α-minimal essential medium (α-MEM: a product of Gibco) at the same volume. In the respective wells of the 96-well plate, 5 μl supernatant or cell lysates were mixed with a 50 μl substrate solution (1.3 mg/ml p-nitrophenyl-N-acetyl-β-D-glucosamine;
pH 4.5 in 100 mM sodium citrate). After incubation at 37° C. for 60 minutes, 150 μl, 200 mM solution of glycine (pH 10.7) was added, and the reaction was stopped. The absorbance was measured at 414 nm. The (%) of the released marker substance (β-hexosaminidase) was calculated according to the following expression; OD(supernatant)/(OD(supernatant).+OD(pellet))×100.
The test was performed by three-sample test, an average and standard deviation were calculated on the basis of the measurement results for statistic analysis by ANOVA+ Tukey's test.

[2] = system: retinal neovascularization; experiment: Influence of nafamostat mesilate (NM) on retinal neovascularization in ROP model mice; type: in vivo; conditions: 1 mg/kg intraperitoneally every day P12-P17
Procedure: For the ROP models, the BMCMC-injected W^sh/W^sh mice produced in Reference Example 2 (administered by an amount of 1×10^6 cells/20 μL) were used, and W^sh/W^sh mice to which saline was administered by the same volume were used as the control group. The oxygen concentration for the period P0-P17 was replaced by the same schedule as Example 1 (see FIG. 7). 1 mg/kg/20 μl NM dissolved in saline or saline was injected to the mice intraperitoneally in the period P12-P17 every day. On P17, the mice were slaughtered and eyes are collected, and evaluation of neovascularization was performed in the similar manner as Example 1. The results are illustrated in FIG. 8. In FIG. 8 the sign “*” denotes P<0.05 (compared with the number of nuclei of the endothelial cells of the vessels of the control mice).

[3] = system: retinal neovascularization; experiment: Influence of cromolyn on retinal neovascularization in oxygen-induced ROP model mice; type: in vivo; conditions: eyes on P17
Description: As have been reported before (Invest. Ophthalmol. Vis. Sci., 35, 101-111 (1994), etc.), for the +/+ mice, +/W^sh mice, and W^sh/W^sh mice, respectively, neonatal mice were placed in a closed chamber containing 75 v/v % O2 together with their mother for lactation on P7, and this state was maintained for 5 days (P7-P12). Subsequently, this state was continued for further 5 days (P12-P17) in the normal oxygen environment (21 v/v % O2) for induction of oxygen-induced retinopathy (OIR) for use as experimental ROP models. The control mice were raised in the normal oxygen environment (indoor environment, 25° C., 21 v/v % O2. The same applies for the description of Examples.) throughout the test period. Note that the symbol “P”, which refers to a date, herein denotes that the date is a postnatal date, and “P7”, for example, refers to a 7th postnatal date. On P17, eyes were collected from the mice with ROP, fixed with Davidson's fixative overnight, and then embedded with paraffin. Paraffin-embedded serial sections axially sectioned at 6 μm were obtained, stained with HE, images were taken at the magnification 20, and the number of nuclei of the endothelial cells on the side of the vitreous body of the internal limiting membrane was counted. In the immunohistochemical test, the sections were subjected to incubation at 4° C. overnight together with anti-PECAM-1 antibody (a product of Santa Cruz Biotechnology, Inc.) having been diluted at 1:100 (in capacity ratio). To examine an influence in various states of different oxygen concentration, mice for use in the tests were raised in a period from P0 to P17 according to the schedule in which the normal oxygen environment was used in the period P0-P7 (21 v/v % oxygen), the high oxygen concentration environment in the period P7-P12 (75 v/v % oxygen), and the normal oxygen environment in the period P12-P17. On P7 and P12, the oxygen concentration environment was replaced. The neonatal mice of +/+ mice and the W^sh/W^sh mice were divided into three groups, and cromolyn (a product of Sigma Aldrich Corporation) dissolved in phosphate buffered saline (PBS) was injected to the mice at the concentration of 50 mg/kg/20 μL intraperitoneally every day. PBS was administered to the control group at the same volume. Administration methods of the agent for the respective groups were as illustrated in FIG. 5. Specifically, for the first group, cromolyn was administered to the neonatal mice from P6 to P16. […] Subsequently, similarly to Reference Example 1, the number of nuclei of the endothelial cell was counted after staining the ocular sections by HE, and thereby influences of cromolyn on the retinal neovascularization in the +/+ and W^sh/W^sh neonatal mice was evaluated in the similar manner as Reference Example 1.

CC(C)c1ccc2oc3nc(N)c(C(=O)O)cc3c(=O)c2c1 [amlexanox]
degranulation (ratio of released β-hexosaminidase) compared with controls (media) ([1]; 1 μM amlexanox): inhibited the degranulation

N=C(N)c1ccc2cc(OC(=O)c3ccc(N=C(N)N)cc3)ccc2c1 [NM, nafamostat mesilate]
retinal neovascularization (neovascular nuclei) ([2]; +/+ mice with induced ROP): inhibited retinal neovascularization | retinal neovascularization (neovascular nuclei) ([2]; BMCMC-injected W^sh/W^sh mice with induced ROP): inhibited retinal neovascularization

O=C(O)c1cc(=O)c2c(OCC(O)COc3cccc4oc(C(=O)O)cc(=O)c34)cccc2o1 [cromolyn, cromoglycic acid]
retinal neovascularization (number of nuclei of the endothelial cell, HE-stained ocular sections) ([3]; +/+ mice, first group: 50 mg/kg intraperitoneally every day P6-P16): a level as low as that in the W^sh/W^sh mice; also recorded: decreased pathological neovascularization | retinal neovascularization (number of nuclei of the endothelial cell, HE-stained ocular sections) ([3]; +/+ mice, third group: 50 mg/kg intraperitoneally every day P11-P16): a level as low as that in the W^sh/W^sh mice; also recorded: significantly small; also recorded: less than those in the W^sh/W^sh mice | retinal neovascularization (number of nuclei of the endothelial cell, HE-stained ocular sections) ([3]; second group: 50 mg/kg intraperitoneally every day P6-P11 (high oxygen period)): did not influence; also recorded: no effect of inhibition | retinal neovascularization (number of nuclei of the endothelial cell, HE-stained ocular sections) ([3]; second group: 50 mg/kg intraperitoneally every day P6-P11 (high oxygen period), listed as Cromolyn): did not influence | degranulation (ratio of released β-hexosaminidase) compared with controls (media) ([1]; 10 ng/ml): inhibited the degranulation

Cc1cccn2c(=O)c(-c3nnn[nH]3)cnc12 [pemirolast]
degranulation (ratio of released β-hexosaminidase) compared with controls (media) ([1]; 10 nM pemirolast): inhibited the degranulation

C[C@@H]1CN([C@H]2CC[C@](C#N)(c3ccc(F)cc3)CC2)CC[C@]1(C(=O)O)c1ccccc1 [levocabastine]
degranulation (ratio of released β-hexosaminidase) compared with controls (media) ([1]; 10 nM levocabastine): inhibited the degranulation

NC1=NCC2c3ccccc3Cc3ccccc3N12 (stereo not drawn) [epinastine]
degranulation (ratio of released β-hexosaminidase) compared with controls (media) ([1]; 1 ng/ml): inhibited the degranulation

CCOCC(O)COc1ccc(NC(=O)CC[S+](C)C)cc1 (stereo not drawn) [suplatast]
degranulation (ratio of released β-hexosaminidase) compared with controls (media) ([1]; 10 μM suplatast): inhibited the degranulation
